The source of these data is patent US20250177408A1, “INHIBITOR OF INTERACTION BETWEEN YAP/TAZ AND TEAD, PREPARATION THEREOF, PHARMACEUTICAL COMPOSITION THEREOF AND USE THEREOF” (ETERN BIOPHARMA (SHANGHAI) CO., LTD., priority 2022, published 2025).

Where a name gives a salt, the structure may show the parent alone.

Test [1] deals with YAP-TEAD protein interaction (His-TEAD1 (209-426) protein, Bio-YAP peptide (60-100)) (Homo sapiens, UniProt P28347). In words: YAP-TEAD protein interaction HTRF experiment. The format is binding. Conditions: His-TEAD1 (209-426) 10 nM, Bio-YAP peptide 50 nM, read-out: Activity of each compound in blocking YAP-TEAD protein interaction (grades of IC50 values). The gist of the method:
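His-TEAD1 (209-426) at 10 nM final was preincubated 20 min at RT with compounds (10-point 3-fold dilutions, duplicates, 1% DMSO), then Bio-YAP peptide, 10 min. Anti-His-Eu cryptate/streptavidin-XL665 added for 1 h at RT; HTRF read at ex 320 nm, Em665/Em620 ratio ×10000, IC50 from % inhibition.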
(Time-resolved FRET reads energy transfer from a long-lived donor to a nearby acceptor.)

The next test has as its system MSTO-211H cells. Put plainly: Cell proliferation inhibition experiment (CellTiter-Glo). The format is cell-based. The settings on record: Homo sapiens, 96 hours, read-out: Inhibitory activity of each compound on the proliferation of MSTO-211H cells (grades of IC50 values). In outline: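 MSTO-211H cells (1500/well, RPMI1640 + 10% FBS) were plated overnight at 37° C, 5% CO2, then exposed in duplicate to 9 three-fold compound dilutions (DMSO ≤0.5% final) for 96 hours. Viability was read as CellTiter-Glo luminescence after 10 min at room temperature. IC50 was derived from inhibition of the CTG signal.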
(In general: In ATP-based viability assays light output follows the ATP content of the culture.)

Chain of YAP-TEAD protein interaction (His-TEAD1 (209-426) protein, Bio-YAP peptide (60-100)) (P28347 209-426): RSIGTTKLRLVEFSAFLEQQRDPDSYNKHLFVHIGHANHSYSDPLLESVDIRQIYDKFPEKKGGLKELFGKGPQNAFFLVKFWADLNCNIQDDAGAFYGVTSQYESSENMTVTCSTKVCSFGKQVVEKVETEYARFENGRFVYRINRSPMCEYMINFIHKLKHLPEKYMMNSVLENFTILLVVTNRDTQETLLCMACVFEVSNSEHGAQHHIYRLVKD

`NC(=O)c1cc2c(c(F)c1-c1c(Cl)c(F)cc3c1C[C@](c1ccccc1)([C@@H]1CCCN1)O3)Oc1cn[nH]c(=O)c1O2` (atropisomer, axis not shown) [Compound 108, (S)-8-((S)-5-Chloro-6-fluoro-2-phenyl-2-((S)-pyrrolidin-2-yl)-2,3-dihydrobenzofuran-4-yl)-9-fluoro-4-oxo-3,4-dihydrobenzo[5,6][1,4]dioxo [2,3-d]pyridazine-7-carboxamide]: the results for the IC50 (in test [1]; in the test with MSTO-211H cells) were less than 50 nM and 500 to 5000 nM, respectively.

`Cn1cc2c(n1)COc1c-2cc(C(N)=O)c(-c2c(Cl)c(F)cc3c2C[C@](c2ccccc2)([C@@H]2CC4(CC4)CN2)O3)c1F` (atropisomer, axis not shown) [Compound 9, (S)-7-((S)-5-Chloro-6-fluoro-2-phenyl-2-((S)-5-azaspiro[2.4]heptan-6-yl)-2,3-dihydrobenzofuran-4-yl)-6-fluoro-2-methyl-2,4-dihydrochromeno[3,4-c]pyrazole-8-carboxamide hydrochloride]: the IC50 in test [1] is less than 50 nM; with MSTO-211H cells, less than 200 nM.

With `Cn1cc2c(n1)COc1c-2cc(C(N)=O)c(-c2c(Cl)c(F)cc3c2C[C@](c2ccccc2)([C@@H]2CCC(=O)N2)O3)c1F` (atropisomer, axis not shown) [Compound 115, (S)-7-((S)-5-Chloro-6-fluoro-2-((S)-5-oxopyrrolidin-2-yl)-2-phenyl-2,3-dihydrobenzofuran-4-yl)-6-fluoro-2-methyl-2,4-dihydrochromeno[3,4-c]pyrazole-8-carboxamide], the figures for the IC50 (in test [1]; with MSTO-211H cells) were less than 50 nM and 500 to 5000 nM, respectively.

Turning to `Cn1ccc2c(c1=O)Oc1cc(C(N)=O)c(-c3c(Cl)c(F)cc4c3C[C@](c3ccccc3)([C@@H]3CCCN3)O4)c(F)c1O2` (atropisomer, axis not shown) [Compound 136, (S)-7-((S)-5-Chloro-6-fluoro-2-phenyl-2-((S)-pyrrolidin-2-yl)-2,3-dihydrobenzofuran-4-yl)-6-fluoro-2-methyl-1-oxo-1,2-dihydrobenzo[5,6][1,4]dioxo[2,3-c]pyridine-8-carboxamide], the IC50 is less than 50 nM in test [1] and less than 200 nM in the test on MSTO-211H cells.

As to `NC(=O)c1cc2c(c(F)c1-c1c(Cl)c(F)cc3c1C[C@](c1ccccc1)([C@@H]1CCCN1)O3)OCc1n[nH]nc1-2` (atropisomer, axis not shown) [Compound 7, (S)-7-((S)-5-Chloro-6-fluoro-2-phenyl-2-((S)-pyrrolidin-2-yl)-2,3-dihydrobenzofuran-4-yl)-6-fluoro-2,4-dihydrochromeno[3,4-d][1,2,3]triazole-8-carboxamide], the IC50 in test [1] was less than 50 nM; with MSTO-211H cells, 200 to 500 nM.

Turning to `NC(=O)c1cc2c(c(F)c1-c1c(Cl)c(F)cc3c1C[C@](c1ccccc1)([C@@H]1CCCN1)O3)Oc1ncc(CO)nc1O2` (atropisomer, axis not shown) [Compound 102, (S)-8-((S)-5-Chloro-6-fluoro-2-phenyl-2-((S)-pyrrolidin-2-yl)-2,3-dihydrobenzofuran-4-yl)-9-fluoro-3-(hydroxymethyl)benzo[5,6] [1,4]dioxo [2,3-b]pyrazine-7-carboxamide], the IC50 was less than 50 nM in test [1] and less than 200 nM in the test with MSTO-211H cells.

Turning to `NC(=O)c1cc2cccnc2c(F)c1-c1c(Cl)c(F)cc2c1C[C@](c1ccccc1)([C@@H]1CCCN1)O2` (atropisomer, axis not shown) [Compound 4, (S)-7-((S)-5-Chloro-6-fluoro-2-phenyl-2-((S)-pyrrolidin-2-yl)-2,3-dihydrobenzofuran-4-yl)-8-fluoroquinoline-6-carboxamide], the results for the IC50 (in test [1]; with MSTO-211H cells) were less than 50 nM and less than 200 nM, respectively.

For the molecule `NC(=O)c1cc2c(c(F)c1-c1c(Cl)c(F)cc3c1C[C@](c1ccccc1)([C@@H]1CCCN1)O3)OCc1nncn1-2` (atropisomer, axis not shown) [Compound 42, (S)-7-((S)-5-Chloro-6-fluoro-2-phenyl-2-((S)-pyrrolidin-2-yl)-2,3-dihydrobenzofuran-4-yl)-6-fluoro-4H-benzo[b][1,2,4]triazolo[4,3-d][1,4]oxazine-8-carboxamide], the IC50 in test [1] was less than 50 nM; with MSTO-211H cells, 500 to 5000 nM.

For the molecule `[2H]C1([2H])CC[C@]([2H])([C@@]2(c3ccccc3)Cc3c(cc(F)c(Cl)c3-c3c(C(=O)NC)cc4c(c3F)Oc3c(cnn(CC(F)F)c3=O)O4)O2)N1` (atropisomer, axis not shown) [Compound 156, (S)-8-((S)-5-Chloro-6-fluoro-2-phenyl-2-((S)-pyrrolidin-2-yl-2,5,5-d3)-2,3-dihydrobenzofuran-4-yl)-2-(2,2-difluoroethyl)-9-fluoro-N-methyl-1-oxo-1,2-dihydrobenzo[5,6][1,4]dioxo [2,3-d]pyridazine-7-carboxamide], the IC50 in test [1] is less than 50 nM; with MSTO-211H cells, less than 200 nM.

With `CNC(=O)c1cc2c(c(F)c1-c1c(Cl)c(F)cc3c1C[C@](c1ccccc1)([C@@H]1CCCN1)O3)Oc1c(cnn(CC(F)(F)F)c1=O)O2` (atropisomer, axis not shown) [Compound 144], the IC50 in test [1] was less than 50 nM; in the test with MSTO-211H cells, less than 200 nM.

On to `CNC[C@@]1(c2ccccc2)Cc2c(cc(F)c(Cl)c2-c2c(C(N)=O)cn3cc(C)nc3c2F)O1` (atropisomer, axis not shown) [Compound I-16, (S)-7-((S)-5-Chloro-6-fluoro-2-((methylamino)methyl)-2-phenyl-2,3-dihydrobenzofuran-4-yl)-8-fluoro-2-methylimidazo[1,2-a]pyridine-6-carboxamide], for which the IC50 in test [1] is less than 50 nM; in the test with MSTO-211H cells, less than 200 nM.

In the case of `NC(=O)c1cc2c(c(F)c1-c1c(Cl)c(F)cc3c1C[C@](c1ccccc1)([C@@H]1CCCN1)O3)Oc1nc(CO)cnc1O2` (atropisomer, axis not shown) [Compound 101, (S)-8-((S)-5-Chloro-6-fluoro-2-phenyl-2-((S)-pyrrolidin-2-yl)-2,3-dihydrobenzofuran-4-yl)-9-fluoro-2-(hydroxymethyl)benzo[5,6] [1,4]dioxo [2,3-b]pyrazine-7-carboxamide], the results for the IC50 (in test [1]; in the test with MSTO-211H cells) were less than 50 nM and less than 200 nM, respectively.

For the molecule `CNC[C@@]1(c2ccccc2)Cc2c(cc(F)c(Cl)c2-c2c(C(N)=O)cc3c(c2F)OCc2nn(C)cc2-3)O1` (atropisomer, axis not shown) [Compound 41, (S)-7-((S)-5-Chloro-6-fluoro-2-((methylamino)methyl)-2-phenyl-2,3-dihydrobenzofuran-4-yl)-6-fluoro-2-methyl-2,4-dihydrochromeno[3,4-c]pyrazole-8-carboxamide], the results for the IC50 (in test [1]; in the test on MSTO-211H cells) were less than 50 nM and less than 200 nM, respectively.

As to `NC(=O)c1cc2c(c(F)c1-c1c(Cl)c(F)cc3c1C[C@](c1ccccc1)([C@@H]1CCCN1)O3)Oc1ncn(CCF)c(=O)c1O2` (atropisomer, axis not shown) [Compound 138, (S)-8-((S)-5-Chloro-6-fluoro-2-phenyl-2-((S)-pyrrolidin-2-yl)-2,3-dihydrobenzofuran-4-yl)-9-fluoro-3-(2-fluoroethyl)-4-oxo-3,4-dihydrobenzo [5,6][1,4]dioxo [2,3-d]pyrimidine-7-carboxamide], the figures for the IC50 (in test [1]; in the test on MSTO-211H cells) were less than 50 nM and less than 200 nM, respectively.

Take `NC(=O)c1cc2c(c(F)c1-c1c(Cl)c(F)cc3c1C[C@](c1ccccc1)([C@@H]1CCCN1)O3)Oc1cnn(CCC(F)(F)F)c(=O)c1O2` (atropisomer, axis not shown) [Compound 134, (S)-8-((S)-5-Chloro-6-fluoro-2-phenyl-2-((S)-pyrrolidin-2-yl)-2,3-dihydrobenzofuran-4-yl)-9-fluoro-3-(3,3,3-trifluoropropyl)-4-oxo-3,4-dihydrobenzo[5,6][1,4]dioxo[2,3-d]pyridazine-7-carboxamide]: the IC50 in test [1] was less than 50 nM; with MSTO-211H cells, 500 to 5000 nM.

Take `[2H]C1([2H])CC[C@]([2H])([C@@]2(c3ccccc3)Cc3c(cc(F)c(Cl)c3-c3c(C(N)=O)cc4c(c3F)Oc3c(cnn(CC(F)F)c3=O)O4)O2)N1` (atropisomer, axis not shown) [Compound 152, (S)-8-((S)-5-Chloro-6-fluoro-2-phenyl-2-((S)-pyrrolidin-2-yl-2,5,5-d3)-2,3-dihydrobenzofuran-4-yl)-2-(2,2-difluoroethyl)-9-fluoro-1-oxo-1,2-dihydrobenzo [5,6][1,4]dioxo [2,3-d]pyridazine-7-carboxamide]: the IC50 is less than 50 nM in test [1] and less than 200 nM in the test with MSTO-211H cells.

Consider `CCn1ncc2c(c1=O)Oc1cc(C(N)=O)c(-c3c(Cl)c(F)cc4c3C[C@](c3ccccc3)([C@@H]3CCCN3)O4)c(F)c1O2` (atropisomer, axis not shown) [Compound 110, (S)-8-((S)-5-Chloro-6-fluoro-2-phenyl-2-((S)-pyrrolidin-2-yl)-2,3-dihydrobenzofuran-4-yl)-3-ethyl-9-fluoro-4-oxo-3,4-dihydrobenzo[5,6][1,4]dioxo [2,3-d]pyridazine-7-carboxamide], for which the IC50 in test [1] was less than 50 nM; in the test on MSTO-211H cells, 200 to 500 nM.

Consider `NC(=O)c1cc2c(c(F)c1-c1c(Cl)c(F)cc3c1C[C@](c1ccccc1)([C@@H]1CCCN1)O3)Oc1c(cnn(CC(F)(F)F)c1=O)O2` (atropisomer, axis not shown) [Compound 143, (S)-8-((S)-5-Chloro-6-fluoro-2-phenyl-2-((S)-pyrrolidin-2-yl)-2,3-dihydrobenzofuran-4-yl)-9-fluoro-1-oxo-2-(2,2,2-trifluoroethyl)-1,2-dihydroxybenzo[5,6][1,4]dioxo[2,3-d]pyridazine-7-carboxamide], for which the results for the IC50 (in test [1]; in the test on MSTO-211H cells) were less than 50 nM and less than 200 nM, respectively.
